System: sodium monoiodoacetate (MIA)-induced model rats
Assay: Analgesic effect on sodium monoiodoacetate-induced model rats (right hind limb weight load ratio)
Format: in vivo, rat
[1] = day 24, test substance oral twice a day over 10 days, 3 hours after last administration, experiment with tramadol as positive control (Table 7)
[2] = day 24, test substance oral twice a day over 10 days, 3 hours after last administration, experiment with morphine as positive control (Table 8)

SMILES	Percent improvement (%) [1] [%]	Percent improvement (%) [2] [%]	other results
Nc1ncc(Cl)cc1-c1ccc(Oc2ncc(NC(=O)Nc3cc(C(F)(F)F)ccc3-n3cccn3)cn2)cc1 [Example 7, 1-(2-(1H-pyrazol-1-yl)-5-(trifluoromethyl)phenyl)-3-(2-(4-(2-amino-5-chloropyridin-3-yl)phenoxy)pyrimidin-5-yl)urea]	61	–	–
Cc1cn(-c2ccc(C(F)(F)F)cc2NC(=O)Nc2cnc(Oc3ccc(-c4cc(Cl)cnc4N)cc3)nc2)nn1 [Example 8-1, 1-(2-(4-(2-amino-5-chloropyridin-3-yl)phenoxy)pyrimidin-5-yl)-3-(2-(4-methyl-1H-1,2,3-triazol-1-yl)-5-(trifluoromethyl)phenyl)urea]	60	–	–
Nc1ncc(F)cc1-c1ccc(Oc2ncc(NC(=O)Nc3cc(C(F)(F)F)ccc3-n3ccnn3)cn2)cc1 [Example 14-5, 1-(2-(1H-1,2,3-triazol-1-yl)-5-(trifluoromethyl)phenyl)-3-(2-(4-(2-amino-5-fluoropyridin-3-yl)phenoxy)pyrimidin-5-yl)urea]	47	–	–
Nc1ncc(F)cc1-c1ccc(Oc2ncc(NC(=O)Nc3cc(C(F)(F)F)ccc3-c3cccnc3)cn2)cc1 [Example 14-6, 1-(2-(4-(2-amino-5-fluoropyridin-3-yl)phenoxy)pyrimidin-5-yl)-3-(2-(pyridin-3-yl)-5-(trifluoromethyl)phenyl)urea]	–	53	–
Nc1ncc(Cl)cc1-c1ccc(Oc2ncc(NC(=O)Nc3ccc(C(F)(F)F)cc3Cl)cn2)cc1 [Example 15-6, 1-(2-(4-(2-amino-5-chloropyridin-3-yl)phenoxy)pyrimidin-5-yl)-3-(2-chloro-4-(trifluoromethyl)phenyl)urea]	51	–	–
Nc1ncc(C(F)(F)F)cc1-c1ccc(Oc2ncc(NC(=O)Nc3cc(C(F)(F)F)ccc3-n3ccc(C(F)(F)F)n3)cn2)cc1 [Example 15-52, 1-(2-{4-[2-amino-5-(trifluoromethyl)-3-pyridinyl]phenoxy}-5-pyrimidinyl)-3-{5-(trifluoromethyl)-2-[3-(trifluoromethyl)-1H-pyrazol-1-yl]phenyl}urea]	–	60	–
Nc1ncc(Cl)cc1-c1ccc(Oc2ncc(NC(=O)Nc3cc(C(F)(F)F)ccc3-c3ccccc3)cn2)cc1 [Example 15-55, 1-{2-[4-(2-amino-5-chloro-3-pyridinyl)phenoxy]-5-pyrimidinyl}-3-[4-(trifluoromethyl)-2-biphenylyl]urea]	–	62	–
Nc1ncc(Cl)cc1-c1ccc(Oc2ncc(NC(=O)Nc3cc(C(F)(F)F)ccc3-n3cc(Cl)cn3)cn2)cc1 [Example 15-63, 1-{2-[4-(2-amino-5-chloro-3-pyridinyl)phenoxy]-5-pyrimidinyl}-3-[2-(4-chloro-1H-pyrazol-1-yl)-5-(trifluoromethyl)phenyl]urea]	–	53	–
Nc1ncc(Cl)cc1-c1ccc(Oc2ncc(NC(=O)Nc3ccc(C(F)(F)F)cc3C(F)(F)F)cn2)cc1 [Example 15-77, 1-{2-[4-(2-amino-5-chloro-3-pyridinyl)phenoxy]-5-pyrimidinyl}-3-[2,4-bis(trifluoromethyl)phenyl]urea]	–	55	–
Nc1ncc(C(F)(F)F)cc1-c1ccc(Oc2ncc(NC(=O)Nc3cc(C(F)(F)F)ccc3-n3cc(Cl)cn3)cn2)cc1 [Example 15-87, 1-(2-{4-[2-amino-5-(trifluoromethyl)-3-pyridinyl]phenoxy}-5-pyrimidinyl)-3-[2-(4-chloro-1H-pyrazol-1-yl)-5-(trifluoromethyl)phenyl]urea]	–	57	–
CS(=O)(=O)c1ccc(C(F)(F)F)cc1NC(=O)Nc1cnc(Oc2ccc(-c3cc(C(F)(F)F)cnc3N)cc2)nc1 [Example 15-98, 1-(2-{4-[2-amino-5-(trifluoromethyl)-3-pyridinyl]phenoxy}-5-pyrimidinyl)-3-[2-(methylsulfonyl)-5-(trifluoromethyl)phenyl]urea]	–	57	–
CS(=O)(=O)c1ccc(C(F)(F)F)cc1NC(=O)Nc1cnc(Oc2ccc(-c3cc(Cl)cnc3N)cc2)nc1 [Example 15-104, 1-{2-[4-(2-amino-5-chloro-3-pyridinyl)phenoxy]-5-pyrimidinyl}-3-[2-(methylsulfonyl)-5-(trifluoromethyl)phenyl]urea]	–	54	–
COc1ccn2ncc(-c3ccc(Oc4ncc(NC(=O)Nc5cc(C(F)(F)F)ccc5-c5cccnc5)cn4)cc3)c2n1 [Example 21-9, 1-(2-(4-(5-methoxypyrazolo[1,5-a]pyrimidin-3-yl)phenoxy)pyrimidin-5-yl)-3-(2-(pyridin-3-yl)-5-(trifluoromethyl)phenyl)urea]	64	–	–
O=C(Nc1cnc(Oc2ccc(-c3cnn4cccnc34)cc2)nc1)Nc1cc(C(F)(F)F)ccc1-c1cccnc1 [Example 21-13, 1-(2-(4-(pyrazolo[1,5-a]pyrimidin-3-yl)phenoxy)pyrimidin-5-yl)-3-(2-(pyridin-3-yl)-5-(trifluoromethyl)phenyl)urea]	66	–	–
CN(C)c1ccn2ncc(-c3ccc(Oc4ncc(NC(=O)Nc5cc(C(F)(F)F)ccc5-c5cccnc5)cn4)cc3)c2n1 [Example 21-37, 1-(2-{4-[5-(dimethylamino)pyrazolo[1,5-a]pyrimidin-3-yl]phenoxy}-5-pyrimidinyl)-3-[2-(3-pyridinyl)-5-(trifluoromethyl)phenyl]urea]	–	67	–
CN(C)c1ccn2ncc(-c3ccc(Oc4ncc(NC(=O)Nc5cc(C(F)(F)F)ccc5-c5ccnn5C)cn4)cc3)c2n1 [Example 21-51, 1-(2-{4-[5-(dimethylamino)pyrazolo[1,5-a]pyrimidin-3-yl]phenoxy}-5-pyrimidinyl)-3-[2-(1-methyl-1H-pyrazol-5-yl)-5-(trifluoromethyl)phenyl]urea]	–	68	–
CN(C)c1ccn2ncc(-c3ccc(Oc4ncc(NC(=O)Nc5cc(C(F)(F)F)ccc5-c5ccccc5)cn4)cc3)c2n1 [Example 21-70, 1-(2-{4-[5-(dimethylamino)pyrazolo[1,5-a]pyrimidin-3-yl]phenoxy}-5-pyrimidinyl)-3-[4-(trifluoromethyl)-2-biphenylyl]urea]	–	61	–
Cc1cccc(-c2ccc(C(F)(F)F)cc2NC(=O)Nc2cnc(Oc3ccc(-c4cnn5ccc(N(C)C)nc45)cc3)nc2)c1 [Example 21-73, 1-(2-{4-[5-(dimethylamino)pyrazolo[1,5-a]pyrimidin-3-yl]phenoxy}-5-pyrimidinyl)-3-[3′-methyl-4-(trifluoromethyl)-2-biphenylyl]urea]	–	62	–
COc1cccc(C2(O)CCCCC2CN(C)C)c1 (stereo not shown) [Tramadol, reference compound]	–	–	Percent improvement (%) (day 24, positive control drug, 10 mg/kg subcutaneous, 1 hour after administration (Table 7)): 43%

Reference: patent US9763943B2, “Trk-inhibiting compound” (ONO PHARMACEUTICAL CO., LTD., priority 2013, dated 2017)
